In brackets after ≈: the same amount, converted by molar mass.
Columns and labels:
S. aureus = assay: MIC, resazurin microtitre method; type: cell-based; settings: Staphylococcus aureus, 24 h, read-out: Minimal inhibitory concentration
Procedure: (§1) To ensure sterility, the extracts and DMSO underwent ultrafiltration before their use in the study. The minimum inhibitory concentration (MIC) of both aqueous and methanolic extracts was determined using a modified version of the resazurin method developed by Sarker and Nahar. A resazurin solution was prepared by dissolving 270 mg of resazurin in 40 mL of sterilized deionized water. In 96-well microtiter plates, the first row received 100 μL of samples in DMSO (1:10 v/v), while all other wells received 50 μL of Luria–Bertani broth or normal sterile solution. Serial dilutions of the extracts were performed in descending concentrations. To each well, 10 μL of the resazurin indicator solution was added. […] The plates were sealed with parafilm to prevent dehydration. A column of the plate contained the broad-spectrum antibiotic tetracycline, which was previously suspended in DMSO and served as a positive control. The negative control consisted of Luria–Bertani broth containing resazurin and bacteria without any samples. The plates were incubated at 37 °C (35 °C for A. baumannii) for 24 h. Visual observation was used to assess any color changes. If the solution changed from dark purple to pink or colorless, it was recorded as a positive result. The MIC value was determined as the lowest concentration of extracts that could prevent the color change from dark purple to pink.

A. baumannii = assay: MIC, resazurin microtitre method; type: cell-based; settings: Acinetobacter baumannii, 24 h, 35 °C, read-out: Minimal inhibitory concentration
Procedure: as §1

P. aeruginosa = assay: MIC, resazurin microtitre method; type: cell-based; settings: Pseudomonas aeruginosa, 24 h, 37 °C, read-out: Minimal inhibitory concentration
Procedure: as §1

E. coli = assay: MIC, resazurin microtitre method; type: cell-based; settings: Escherichia coli, 24 h, read-out: Minimal inhibitory concentration
Procedure: as §1

L. monocytogenes = assay: MIC, resazurin microtitre method; type: cell-based; settings: Listeria monocytogenes, 24 h, 37 °C, read-out: Minimal inhibitory concentration
Procedure: as §1

DPPH assay = settings: 45 min, 515 nm
Procedure: The antiradical activity of the stable 1,1-diphenyl-2-picrylhydrazyl radical (DPPH) was measured using the protocol of Xiang and coworkers with slight modifications. […] To produce final concentrations ranging from 31.25 to 1000 µg/mL, aliquots of extracts were dissolved in methanol. In a straight-sided cuvette, an aliquot of methanol solution containing different concentrations of either methanolic or aqueous extracts was added to a DPPH solution (60 μM) to a final volume of 1 mL. As a control, an identical quantity of DPPH solution was applied to the cuvette, and methanol alone was used as the blank. After 45 min, the absorbance at 515 nm was measured with a Multiskan GO spectrophotometer (Thermo Fisher Scientific, Vantaa, Finland).
The standard was 6-hydroxy 2,5,7,8-tetramethylchroman-2-carboxylic acid (Trolox, Sigma-Aldrich, Milan, Italy).

DPPH (IC50) (DPPH assay) [µg/mL] | SMILES | MIC (S. aureus) [µg/mL] | MIC (A. baumannii) [µg/mL] | MIC (P. aeruginosa) [µg/mL] | MIC (E. coli) [µg/mL] | MIC (L. monocytogenes) [µg/mL]
 | CN(C)[C@@H]1C(O)=C(C(N)=O)C(=O)[C@@]2(O)C(O)=C3C(=O)c4c(O)cccc4[C@@](C)(O)[C@H]3C[C@@H]12 [Tetracycline] | 28 ± 1 (≈ 63 µM) | 25 ± 2 (≈ 56.3 µM) | 28 ± 1 (≈ 63 µM) | 25 ± 2 (≈ 56.3 µM) | 32 ± 1 (≈ 72 µM)
3.65 ± 0.01 | Cc1c(C)c2c(c(C)c1O)CCC(C)(C(=O)O)O2 (stereo not drawn) [Trolox, 6-hydroxy 2,5,7,8-tetramethylchroman-2-carboxylic acid] |  |  |  |  | 

Reference: paper PMC10648406, “Pulicaria incisa (Lam.) DC. as a Potential Source of Antioxidant, Antibacterial, and Anti-Enzymatic Bioactive Molecules: Phytochemical Constituents, In Vitro and In Silico Pharmacological Analysis” (Molecules, 2023)
